# Values of other authors as cited in US20190328710A1, “SYNERGISTIC COMPOSITION FOR INHIBITING ADVANCED GLYCATION END PRODUCT CROSSLINKING” (H2 Water Technologies Ltd., priority 2018, published 2019).
# System: patients with cataracts
# Details: 96-patient trial, 6-month trial period
compound,measurement,setting,value
NCCC(=O)N[C@@H](Cc1cnc[nH]1)C(=O)O [L-Carnosine],success rate in advanced senile cataracts,advanced senile cataracts,80%
same,success rate in patients with mild to moderate cataracts,mild to moderate cataracts,100%
